In patent publication US9469645B2, “Compounds and compositions for the treatment of parasitic diseases” (Novartis AG, priority 2009, dated 2016):

test system: 3D7 P. falciparum strain; assay: parasite proliferation assay in infected red blood cells (SYBR Green I); assay type: cell-based, Plasmodium falciparum; conditions: Plasmodium falciparum, 3D7, Erythrocyte, 3D7 strain; read-out: EC50 3D7 strain
From the text: (§1) Compounds of the invention can be assayed to measure their capacity to inhibit proliferation of parasitemia in infected red blood cells. The proliferation is quantified by the addition of SYBR Green I (INVITROGEN)® dye which has a high affinity for double stranded DNA.
The following assay illustrates the invention without in any way limiting the scope of the invention. This parasite proliferation assay measures the increase in parasite DNA content using a DNA intercalating dye, SYBR Green®.
3D7 P. falciparum strain is grown in complete culturing media until parasitemia reaches 3% to 8% with O+ human erythrocytes. 20 μl of screening media is dispensed into 384 well assay plates. […] 10 μl of lysis buffer (saponin, triton-X, EDTA) containing a 10× solution of SYBR Green I® in RPMI media is dispensed into the plates. The plates are lidded and kept at room temperature overnight for the lysis of the infected red blood cells.

Structure (SMILES)	EC50
Cc1cc(C)cc(Nc2c(-c3ccccc3)nc3n2CCN(C(=O)CN)C3)c1 [Compound 2]	3480 nM
CC(C)(N)C(=O)N1CCn2c(nc(-c3ccc(F)cc3)c2Nc2ccc(F)cc2)C1 [Compound 3]	20 nM
NCC(=O)N1CCn2c(nc(-c3ccc(F)cc3)c2Nc2ccc(F)cc2)C1 [Compound 4]	20 nM
CC(C)(N)C(=O)N1CCn2c(nc(-c3ccc(F)cc3)c2Nc2ccc3c(c2)OCO3)C1 [Compound 5]	4330 nM
NCC(=O)N1CCn2c(nc(-c3ccc(F)cc3)c2NC2CCCC2)C1 [Compound 6]	4380 nM
NCC(=O)N1CCn2c(nc(-c3ccccc3)c2NC2CCCC2)C1 [Compound 7]	15800 nM
CC(C)(N)C(=O)N1CCn2c(nc(-c3ccccc3)c2Nc2ccccc2)C1 [Compound 8]	620 nM
COC(=O)c1ccc(Nc2c(-c3ccccc3)nc3n2CCN(C(=O)C(C)(C)N)C3)cc1 [Compound 9]	13800 nM
CC(C)(N)C(=O)N1CCn2c(nc(-c3ccccc3F)c2Nc2ccc(F)cc2)C1 [Compound 10]	1390 nM
CC(C)(N)C(=O)N1CCn2c(nc(-c3ccccc3)c2Nc2ccc(F)cc2)C1 [Compound 11]	200 nM
CC(C)(N)C(=O)N1CCn2c(nc(-c3c(F)cc(F)cc3F)c2Nc2ccc(F)cc2)C1 [Compound 12]	7400 nM
CC(C)(N)C(=O)N1CCn2c(nc(-c3cc(F)cc(F)c3)c2Nc2ccc(F)cc2)C1 [Compound 13]	260 nM
CCCCCc1ccc(-c2nc3n(c2Nc2ccc(F)cc2)CCN(C(=O)C(C)(C)N)C3)cc1 [Compound 14]	3590 nM
O=C(CN1CCC(C(F)(F)F)CC1)N1CCn2c(nc(-c3ccc(F)cc3)c2Nc2ccc(F)cc2)C1 [Compound 61]	9240 nM
NCC(=O)N1CCn2c(nc(-c3ccc(F)cc3)c2Nc2ccc(F)c(Cl)c2)C1 [Compound 78]	10 nM
Cc1ccc(Nc2c(-c3ccc(F)cc3)nc3n2CCN(C(=O)CCO)C3)cc1 [Compound 103]	1020 nM
Cc1ccc(Nc2c(-c3ccc(F)cc3)nc3n2CCN(C(=O)[C@H]2CCC[C@@H]2O)C3)cc1 [Compound 105]	850 nM
Cc1ccc(Nc2c(-c3ccc(F)cc3)nc3n2CCN(C(=O)CC(C)O)C3)cc1 (stereo not drawn) [Compound 108]	960 nM
Cc1ccc(Nc2c(-c3ccc(F)cc3)nc3n2CCN(C(=O)[C@H](O)Cc2ccccc2)C3)cc1 [Compound 109]	40 nM
Cc1ccc(Nc2c(-c3ccc(F)cc3)nc3n2CCN(C(=O)C(C)(O)c2ccccc2)C3)cc1 (stereo not drawn) [Compound 111]	20 nM

Structure (SMILES)	EC50
Cc1ccc(Nc2c(-c3ccc(F)cc3)nc3n2CCN(C(=O)C(C)(C)C(O)c2ccc(C)cc2)C3)cc1 (stereo not drawn) [Compound 119]	4740 nM
Cc1ccc(Nc2c(-c3ccc(F)cc3)nc3n2CCN(C(=O)C(O)c2cc(F)cc(F)c2)C3)cc1 (stereo not drawn) [Compound 123]	30 nM
Cc1ccc(Nc2c(-c3ccc(F)cc3)nc3n2CCN(C(=O)C(O)c2ccc(O)cc2)C3)cc1 (stereo not drawn) [Compound 130]	10 nM
Cc1ccc(Nc2c(-c3ccc(F)cc3)nc3n2CCN(C(=O)[C@@H](N)C(C)C)C3)cc1 [Compound 169]	40 nM
NC(C(=O)N1CCn2c(nc(-c3ccc(F)cc3)c2Nc2ccc(Cl)c(F)c2)C1)C(F)(F)F (stereo not drawn) [Compound 194]	50 nM
CO[C@@H](C)C(=O)N1CCn2c(nc(-c3ccc(F)cc3)c2Nc2ccc(C)cc2)C1 [Compound 198]	1360 nM
Cc1ccc(Nc2c(-c3ccc(F)cc3)nc3n2CCN(C(=O)C2CCCO2)C3)cc1 (stereo not drawn) [Compound 200]	910 nM
CCCCC(=O)OC(C(=O)N1CCn2c(nc(-c3ccc(F)cc3)c2Nc2ccc(C)cc2)C1)c1ccccc1 (stereo not drawn) [Compound 270]	50 nM
CN(c1ccc(Cl)c(F)c1)c1c(-c2ccc(F)cc2)nc2n1CCN(C(=O)CN)C2 [Compound 293]	20 nM
CC[C@H](C)[C@H](N)C(=O)N1CCn2c(nc(-c3ccc(F)cc3)c2Nc2ccc(Cl)c(F)c2)C1 [Compound 317]	20 nM
CC(C)C[C@H](N)C(=O)N1CCn2c(nc(-c3ccc(F)cc3)c2Nc2ccc(Cl)c(F)c2)C1 [Compound 322]	40 nM
Cc1ccc(Nc2c(-c3cc(F)ccc3F)nc3n2CCNC3)cc1 [Compound 330]	4470 nM
Fc1ccc(-c2nc3n(c2Nc2ccc(F)c(F)c2)CCNC3)cc1 [Compound 331, N-(3,4-difluorophenyl)-2-(4-fluorophenyl)-5,6,7,8-tetrahydroimidazo[1,2-a]pyrazin-3-amine]	140 nM
O=C(C(Nc1ccccc1)c1ccccc1)N1CCn2c(nc(-c3ccc(F)cc3)c2Nc2ccc(Cl)c(F)c2)C1 (stereo not drawn) [Compound 332]	1040 nM
O=C(Cc1ccccc1OC(F)(F)F)N1CCn2c(nc(-c3ccc(F)cc3)c2Nc2ccc(Cl)c(F)c2)C1 [Compound 333]	1110 nM
O=C([C@@H](O)Cc1ccccc1)N1CCn2c(nc(-c3ccc(F)cc3)c2Nc2ccc(Cl)c(F)c2)C1 [Compound 334]	50 nM
O=C(Cc1ccc(F)c(C(F)(F)F)c1)N1CCn2c(nc(-c3ccc(F)cc3)c2Nc2ccc(Cl)c(F)c2)C1 [Compound 335]	2300 nM
O=C(COc1ccccc1)N1CCn2c(nc(-c3ccc(F)cc3)c2Nc2ccc(Cl)c(F)c2)C1 [Compound 336]	40 nM
O=C1CC(C(=O)N2CCn3c(nc(-c4ccc(F)cc4)c3Nc3ccc(Cl)c(F)c3)C2)CCN1 (stereo not drawn) [Compound 337]	> 10000 nM
O=C([C@@H]1CCCN1)N1CCn2c(nc(-c3ccc(F)cc3)c2Nc2ccc(Cl)c(F)c2)C1 [Compound 338]	190 nM

Structure (SMILES)	EC50
NC(CC(=O)N1CCn2c(nc(-c3ccc(F)cc3)c2Nc2ccc(Cl)c(F)c2)C1)C(F)(F)F (stereo not drawn) [Compound 339]	520 nM
O=C([C@H]1CCCN1)N1CCn2c(nc(-c3ccc(F)cc3)c2Nc2ccc(Cl)c(F)c2)C1 [Compound 340]	200 nM
Cc1ccc(C[C@H](N)C(=O)N2CCn3c(nc(-c4ccc(F)cc4)c3Nc3ccc(Cl)c(F)c3)C2)cc1 [Compound 341]	10 nM
O=C(C1NCc2ccccc21)N1CCn2c(nc(-c3ccc(F)cc3)c2Nc2ccc(Cl)c(F)c2)C1 (stereo not drawn) [Compound 342]	5240 nM
O=C([C@@H]1Cc2ccccc2N1)N1CCn2c(nc(-c3ccc(F)cc3)c2Nc2ccc(Cl)c(F)c2)C1 [Compound 343]	7500 nM
N[C@H](CC(=O)N1CCn2c(nc(-c3ccc(F)cc3)c2Nc2ccc(Cl)c(F)c2)C1)Cc1ccc(Br)cc1 [Compound 344]	210 nM
COc1ccc(CSC[C@@H](N)C(=O)N2CCn3c(nc(-c4ccc(F)cc4)c3Nc3ccc(Cl)c(F)c3)C2)cc1 [Compound 346]	> 8800 nM
O=C([C@H]1Cc2ccccc2CN1)N1CCn2c(nc(-c3ccc(F)cc3)c2Nc2ccc(Cl)c(F)c2)C1 [Compound 347]	5920 nM
NC(CC(F)(F)F)C(=O)N1CCn2c(nc(-c3ccc(F)cc3)c2Nc2ccc(Cl)c(F)c2)C1 (stereo not drawn) [Compound 348]	50 nM
CCCCOCCOCC(=O)N1CCn2c(nc(-c3ccc(F)cc3)c2Nc2ccc(C)cc2)C1 [Compound 349]	7480 nM
CCOCC(=O)N1CCn2c(nc(-c3ccc(F)cc3)c2Nc2ccc(C)cc2)C1 [Compound 350]	660 nM
COCCOCC(=O)N1CCn2c(nc(-c3ccc(F)cc3)c2Nc2ccc(C)cc2)C1 [Compound 351]	1240 nM
Cc1ccc(Nc2c(-c3ccc(F)cc3)nc3n2CC(C)N(C(=O)CN)C3)cc1 (stereo not drawn) [Compound 352]	10 nM
CC(C)(N)C(=O)N1CCn2c(nc(-c3cccc(F)c3)c2Nc2ccc(F)c(C#N)c2)C1 [Compound 353]	210 nM
CC[C@H](N)C(=O)N1CCn2c(nc(-c3ccc(F)cc3)c2Nc2ccc(Cl)c(F)c2)C1 [Compound 393]	20 nM
Fc1ccc(-c2nc3n(c2Nc2ccc(F)c(Cl)c2)CCNC3)cc1 [Compound 447]	230 nM
N[C@@H](CC1CC1)C(=O)N1CCn2c(nc(-c3ccc(F)cc3)c2Nc2ccc(F)cc2)C1 [Compound 466]	30 nM
CC(C)(N)C(=O)N1CCn2c(nc(-c3ccc(F)cc3)c2Nc2ccc(F)c(Cl)c2)C1 [Compound 492]	50 nM
Cc1ccc(Sc2c(-c3ccc(F)cc3)nc3n2CCN(C(=O)CN)C3(C)C)cc1 [Compound 713, 2-amino-1-(2-(4-fluorophenyl)-8,8-dimethyl-3-(p-tolylthio)-5,6-dihydroimidazo[1,2-a]pyrazin-7(8H)-yl)ethanone]	8 nM
Cc1ccc([S+]([O-])c2c(-c3ccc(F)cc3)nc3n2CCN(C(=O)CN)C3(C)C)cc1 (stereo not drawn) [Compound 721, 2-amino-1-(2-(4-fluorophenyl)-8,8-dimethyl-3-(p-tolylsulfinyl)-5,6-dihydroimidazo[1,2-a]pyrazin-7 (8H)-yl)ethanone]	42 nM

same assay, conditions: Plasmodium falciparum, 3D7, Erythrocyte, read-out: EC50 3D7 strain

Structure (SMILES)	EC50
Cc1ccc(Nc2c(-c3ccc(F)cc3)nc3n2CCN(C(=O)C(O)(c2ccccc2)c2ccccc2)C3)cc1 [Compound 112]	1430 nM

test system: W2 strain; assay: parasite proliferation assay in infected red blood cells (SYBR Green I), W2 strain; assay type: cell-based; conditions: Erythrocyte
From the text: as §1

Structure (SMILES)	EC50
Cc1cc(C)cc(Nc2c(-c3ccccc3)nc3n2CCN(C(=O)CN)C3)c1 [Compound 2]	3350 nM
CC(C)(N)C(=O)N1CCn2c(nc(-c3ccc(F)cc3)c2Nc2ccc(F)cc2)C1 [Compound 3]	25 nM
NCC(=O)N1CCn2c(nc(-c3ccc(F)cc3)c2Nc2ccc(F)cc2)C1 [Compound 4]	23 nM
CC(C)(N)C(=O)N1CCn2c(nc(-c3ccc(F)cc3)c2Nc2ccc3c(c2)OCO3)C1 [Compound 5]	> 8900 nM
NCC(=O)N1CCn2c(nc(-c3ccc(F)cc3)c2NC2CCCC2)C1 [Compound 6]	4640 nM
NCC(=O)N1CCn2c(nc(-c3ccccc3)c2NC2CCCC2)C1 [Compound 7]	7780 nM
CC(C)(N)C(=O)N1CCn2c(nc(-c3ccccc3)c2Nc2ccccc2)C1 [Compound 8]	501 nM
COC(=O)c1ccc(Nc2c(-c3ccccc3)nc3n2CCN(C(=O)C(C)(C)N)C3)cc1 [Compound 9]	3990 nM
CC(C)(N)C(=O)N1CCn2c(nc(-c3ccccc3F)c2Nc2ccc(F)cc2)C1 [Compound 10]	1280 nM
CC(C)(N)C(=O)N1CCn2c(nc(-c3ccccc3)c2Nc2ccc(F)cc2)C1 [Compound 11]	168 nM
CC(C)(N)C(=O)N1CCn2c(nc(-c3c(F)cc(F)cc3F)c2Nc2ccc(F)cc2)C1 [Compound 12]	2960 nM
CC(C)(N)C(=O)N1CCn2c(nc(-c3cc(F)cc(F)c3)c2Nc2ccc(F)cc2)C1 [Compound 13]	137 nM
CCCCCc1ccc(-c2nc3n(c2Nc2ccc(F)cc2)CCN(C(=O)C(C)(C)N)C3)cc1 [Compound 14]	5870 nM
Cc1ccc(Nc2c(-c3ccc(F)cc3)nc3n2CCN(C(=O)C(O)c2ccccc2)C3)cc1 (stereo not drawn) [Compound 82]	7 nM
Cc1ccc(Nc2c(-c3ccc(F)cc3)nc3n2CCN(C(=O)[C@@H](O)Cc2ccccc2)C3)cc1 [Compound 106]	4 nM
Cc1ccc(Nc2c(-c3ccc(F)cc3)nc3n2CCN(C(=O)[C@H](O)C(C)C)C3)cc1 [Compound 205]	4 nM
CN[C@H](CC(C)C)C(=O)N1CCn2c(nc(-c3ccc(F)cc3)c2Nc2ccc(C)cc2)C1 [Compound 377]	574 nM
